From US20070015823A1, “Ambruticin VS compounds” (priority 2004, published 2007) come the findings set out here.

The subject of test [1] is A. flavus ATCC 204304. In words: Broth microdilution antifungal susceptibility, NCCLS M38-A. The class given is cell-based, Aspergillus flavus. Particulars: minimal concentration inhibiting >95% growth; average of at least two assays (except I-l and I-x).
Test [2] has as its system A. fumigatus ATCC 204305. The test is described as above. The format is cell-based, Aspergillus fumigatus. Particulars: minimal concentration inhibiting >95% growth; average of at least two assays (except I-l and I-x).

As for 20,21-dihydro ambruticin VS4 [IV-e], the “MIC0 A. flavus ATCC 204304” value in test [1] was 1 µg/mL. Also, in test [2], the “MIC0 A. fumigatus ATCC 204305” value amounted to 2.5 µg/mL.
On to `CC[C@H]1O[C@@H](/C(C)=C/[C@H](C)/C=C/[C@H]2[C@@H](C)[C@@H]2/C=C/[C@@H]2O[C@H](CC(=O)O)C[C@H](N(C)C)[C@H]2O)CC=C1C` [Ambruticin VS-3, (5S,6R)-5-(dimethylamino)-6-hydroxypolyangioic acid, reference compound], for which, in test [1], the “MIC0 A. flavus ATCC 204304” value worked out at 0.64 µg/mL. In addition, the “MIC0 A. fumigatus ATCC 204305” value in test [2] stood at 0.44 µg/mL.
On to `CC[C@H]1O[C@@H](/C(C)=C/[C@H](C)/C=C/[C@H]2[C@@H](C)[C@@H]2/C=C/[C@@H]2O[C@H](CC(=O)O)C[C@H](N)[C@H]2O)CC=C1C` [Ambruticin VS-5, (5S,6R)-5-amino-6-hydroxypolyangioic acid, reference compound], for which, in test [1], the “MIC0 A. flavus ATCC 204304” value was found to be 1.09 µg/mL. For the same compound, the “MIC0 A. fumigatus ATCC 204305” value in test [2] turned out to be 1.64 µg/mL.
Turning to `CC[C@H]1O[C@@H](/C(C)=C/[C@H](C)/C=C/[C@H]2[C@@H](C)[C@@H]2/C=C/[C@@H]2O[C@H](CC(=O)O)C[C@H](NC(=O)OC)[C@H]2O)CC=C1C` [I-bb, (5S,6R)-5-methoxycarbonylamino-6-hydroxypolyangioic acid], the “MIC0 A. flavus ATCC 204304” value in test [1] worked out at 32 µg/mL. Also, the “MIC0 A. fumigatus ATCC 204305” value in test [2] was 16 µg/mL.
On to `C=CCNC(=O)O[C@H]1[C@H](/C=C/[C@H]2[C@H](C)[C@@H]2/C=C/[C@@H](C)/C=C(\C)[C@H]2CC=C(C)[C@@H](CC)O2)O[C@H](CC(=O)O)C[C@@H]1N(C)C(=O)NCC=C` [I-cc, (5S,6R)-5-(3-allyl-1-methylureido)-6-(allylcarbamoyl)polyangioic acid], for which the “MIC0 A. flavus ATCC 204304” value in test [1] was over 32 µg/mL. Besides, the “MIC0 A. fumigatus ATCC 204305” value in test [2] was over 32 µg/mL.
`CC[C@H]1O[C@@H](/C(C)=C/[C@H](C)/C=C/[C@H]2[C@@H](C)[C@@H]2/C=C/[C@@H]2O[C@H](CC(=O)O)C[C@H](N(C)C(=O)NCc3ccccc3)[C@H]2OC(=O)NCc2ccccc2)CC=C1C` [I-dd, (5S,6R)-5-(3-benzyl-1-methylureido)-6-(benzylcarbamoyl)polyangioic acid]: in test [1], the “MIC0 A. flavus ATCC 204304” value is over 32 µg/mL. Besides, the “MIC0 A. fumigatus ATCC 204305” value in test [2] is over 32 µg/mL.
As to `CC[C@H]1O[C@@H](/C(C)=C/[C@H](C)/C=C/[C@H]2[C@@H](C)[C@@H]2/C=C/[C@@H]2O[C@H](CC(=O)O)C[C@H](N(CC3CC3)CC3CC3)[C@H]2O)CC=C1C` [I-e, (5S,6R)-5-[di(cyclopropylmethyl)amino]-6-hydroxypolyangioic acid], the “MIC0 A. flavus ATCC 204304” value in test [1] came to 3.33 µg/mL. For the same compound, the “MIC0 A. fumigatus ATCC 204305” value in test [2] turned out to be 4.0 µg/mL.
On to `CC[C@H]1O[C@@H](/C(C)=C/[C@H](C)/C=C/[C@H]2[C@@H](C)[C@@H]2/C=C/[C@@H]2O[C@H](CC(=O)O)C[C@H](N(C)Cc3ccc4ccccc4c3)[C@H]2O)CC=C1C` [I-f, (5S,6R)-5-(N-(2-naphthyl)methyl-methylamino)-6-hydroxypolyangioic acid], for which, in test [1], the “MIC0 A. flavus ATCC 204304” value amounted to 4.67 µg/mL. Further, the “MIC0 A. fumigatus ATCC 204305” value in test [2] was 8.0 µg/mL.
As for `CC[C@H]1O[C@@H](/C(C)=C/[C@H](C)/C=C/[C@H]2[C@@H](C)[C@@H]2/C=C/[C@@H]2O[C@H](CC(=O)O)C[C@H](NC(=O)C(F)(F)F)[C@H]2O)CC=C1C` [I-fff, (5S,6R)-5-trifluroacetamido-6-hydroxypolyangioic acid], the “MIC0 A. flavus ATCC 204304” value in test [1] turned out to be 2 µg/mL. For the same compound, the “MIC0 A. fumigatus ATCC 204305” value in test [2] came out at 3 µg/mL.
`CC[C@H]1O[C@@H](/C(C)=C/[C@H](C)/C=C/[C@H]2[C@@H](C)[C@@H]2/C=C/[C@@H]2O[C@H](CC(=O)O)C[C@H](N(Cc3c[nH]cn3)Cc3c[nH]cn3)[C@H]2O)CC=C1C` [I-g, (5S,6R)-5-{di [(4-imidazolyl)methyl]amino}-6-hydroxypolyangioic acid]: the “MIC0 A. flavus ATCC 204304” value in test [1] was determined as 24.0 µg/mL. Moreover, in test [2], the “MIC0 A. fumigatus ATCC 204305” value was 22.67 µg/mL.
On the same counts, the results for `CC[C@H]1O[C@@H](/C(C)=C/[C@H](C)/C=C/[C@H]2[C@@H](C)[C@@H]2/C=C/[C@@H]2O[C@H](CC(=O)OC)C[C@H](N(C)C(=O)OCC(C)C)[C@H]2O)CC=C1C` [I-gg] are over 32 µg/mL and over 32 µg/mL.
For `CC[C@H]1O[C@@H](/C(C)=C/[C@H](C)/C=C/[C@H]2[C@@H](C)[C@@H]2/C=C/[C@@H]2O[C@H](CC(=O)O)C[C@H](NCC(F)F)[C@H]2O)CC=C1C` [I-ggg, (5S,6R)-5-(2,2-difluoroethyl)amino-6-hydroxypolyangioic acid], the “MIC0 A. flavus ATCC 204304” value in test [1] came to 8 µg/mL. For the same compound, in test [2], the “MIC0 A. fumigatus ATCC 204305” value amounted to 4 µg/mL.
On the same counts, the results for `CC[C@H]1O[C@@H](/C(C)=C/[C@H](C)/C=C/[C@H]2[C@@H](C)[C@@H]2/C=C/[C@@H]2O[C@H](CC(=O)O)C[C@H](NCc3ccc(OC)c(OC)c3)[C@H]2O)CC=C1C` [I-hhh, (5S,6R)-5-(3,4-dimethoxybenzyl)amino-6-hydroxypolyangioic acid] are over 32 µg/mL and over 32 µg/mL.
As to `CC[C@H]1O[C@@H](/C(C)=C/[C@H](C)/C=C/[C@H]2[C@@H](C)[C@@H]2/C=C/[C@@H]2O[C@H](CCO)C[C@H](NCC(F)(F)F)[C@H]2O)CC=C1C` [I-iii, (5S,6R)-5-(2,2,2-trifluroethyl)aminopolyangi-1,6-diol], the “MIC0 A. flavus ATCC 204304” value in test [1] worked out at 16 µg/mL. Further, the “MIC0 A. fumigatus ATCC 204305” value in test [2] stood at 16 µg/mL.
Turning to `CC[C@H]1O[C@@H](/C(C)=C/[C@H](C)/C=C/[C@H]2[C@@H](C)[C@@H]2/C=C/[C@@H]2O[C@H](CC(=O)O)C[C@H](NC(C)=O)[C@H]2O)CC=C1C` [I-j, (5S,6R)-5-acetamido-6-hydroxypolyangioic acid], the “MIC0 A. flavus ATCC 204304” value in test [1] was over 32 µg/mL. Further, the “MIC0 A. fumigatus ATCC 204305” value in test [2] amounted to 32 µg/mL.
The like results for `CC[C@H]1O[C@@H](/C(C)=C/[C@H](C)/C=C/[C@H]2[C@@H](C)[C@@H]2/C=C/[C@@H]2O[C@H](CCO)C[C@H](NCC(F)F)[C@H]2O)CC=C1C` [I-jjj, (5S,6R)-5-(2,2-difluroethyl)aminopolyangi-1,6-diol] were, in that order, 8 µg/mL and 8 µg/mL.
In the case of `CC[C@H]1O[C@@H](/C(C)=C/[C@H](C)/C=C/[C@H]2[C@@H](C)[C@@H]2/C=C/[C@@H]2O[C@H](CC(=O)OC)C[C@H](N(C)C(C)=O)[C@H]2O)CC=C1C` [I-k, methyl (5S,6R)-5-[N-methyl(acetamido)]-6-hydroxypolyangioate], the “MIC0 A. flavus ATCC 204304” value in test [1] is over 32 µg/mL. Also, the “MIC0 A. fumigatus ATCC 204305” value in test [2] was over 32 µg/mL.
As for `CCC(=O)N(C)[C@H]1C[C@@H](CC(=O)O)O[C@@H](/C=C/[C@H]2[C@H](C)[C@@H]2/C=C/[C@@H](C)/C=C(\C)[C@H]2CC=C(C)[C@@H](CC)O2)[C@@H]1O` [I-m, (5S,6R)-5-[N-methyl(propionamido)]-6-hydroxypolyangioic acid], the “MIC0 A. flavus ATCC 204304” value in test [1] is over 32 µg/mL. Besides, in test [2], the “MIC0 A. fumigatus ATCC 204305” value is over 32 µg/mL.
Take `CC[C@H]1O[C@@H](/C(C)=C/[C@H](C)/C=C/[C@H]2[C@@H](C)[C@@H]2/C=C/[C@@H]2O[C@H](CC(=O)O)C[C@H](N(C)C(=O)OC)[C@H]2O)CC=C1C` [I-o]: the “MIC0 A. flavus ATCC 204304” value in test [1] turned out to be 32 µg/mL. Besides, the “MIC0 A. fumigatus ATCC 204305” value in test [2] amounted to 16 µg/mL.
